The source made the active and inactive calls. No cut-off for these calls is given here.
Test system: Rattus norvegicus
Experiment: Anti-allodynic activity in rat model of capsaicin-induced inflammatory paw pain assessed as inhibition of mechanical allodynia at 5 uM administered intrathecally 30 mins prior to capsaicin induction and measured at 10 mins interval for 65 mins by von frey test relative to control
Type: functional
Conditions: for inhibition: time 95.0 min; for inhibition in vivo at 5 µM: central, 1.583 h, time 95 min

## O=c1[nH]cc(Oc2ccc([N+](=O)[O-])cc2)cc1-c1cccc2[nH]ccc12
  inhibition: Active

## O=c1[nH]cc(Nc2ccncc2)cc1-c1cccc2[nH]ccc12
  inhibition in vivo at 5 µM: 56%

## CCN(CC)CCCCn1ccc2c(-c3cc(Nc4ccncc4)c[nH]c3=O)cccc21
  inhibition: inactive

## Cn1ccc2c(-c3cc(Nc4ccncc4)c[nH]c3=O)cccc21
  inhibition: inactive

## CCN(CC)CCCn1ccc2c(-c3cc(Nc4ccncc4)c[nH]c3=O)cccc21
  inhibition: inactive

## O=C(Nc1c[nH]c(=O)c(-c2cccc3[nH]ccc23)c1)C1CCNCC1
  inhibition: Active

## O=C(Nc1c[nH]c(=O)c(-c2cccc3[nH]ccc23)c1)c1ccncc1
  inhibition: Active

## O=c1[nH]cc(OC2CCNCC2)cc1-c1cccc2[nH]ccc12
  inhibition in vivo at 5 µM: 64%

## CN(c1ccncc1)c1c[nH]c(=O)c(-c2cccc3[nH]ccc23)c1
  inhibition: Active

## COc1ncc(Nc2ccncc2)cc1-c1cccc2[nH]ccc12
  inhibition in vivo at 5 µM: 85%

## O=c1[nH]cc(Oc2ccncc2)cc1-c1cccc2[nH]ccc12
  inhibition: Active

## O=C(Nc1c[nH]c(=O)c(-c2cccc3[nH]ccc23)c1)c1ccc([N+](=O)[O-])cc1
  inhibition in vivo at 5 µM: 58%

Reference: ChEMBL document CHEMBL5576153, “Synthesis of diversely substituted pyridin-2(1H)-ones and in vivo evaluation of their anti-allodynic effect on cutaneous inflammatory mechanical allodynia” (2024)
